“Also recorded” adds a separate entry of the source. Like-named read-outs stand apart in the source and are kept apart here.
Experiments:
Assay type in all cases: cell-based
mGluR3 = biological target: T1, mGluR3 (Homo sapiens, UniProt Q14832); assay: Functional assay (FLIPR), mGluR3; settings: class symbols: IC50 or inhibition at fixed concentration; CHO cells over-expressing mGluR3, calcium signal
T1 construct: expressed in transfected cells; transient Galpha16 co-transfection
Protocol: (§1) The compounds are further characterized through functional assays known in the art for studying potential mGluR agents. As a non-limiting example, the assay may be conducted as follows. Chinese hamster ovary (CHO) cells stably over-expressing either mGluR2 or mGluR3 are seeded into multiwell plates and transiently transfected overnight at 37° C. with a cDNA construct expressing G-protein coupled to intracellular calcium such as Gα16. The following day cells are washed with Hank's balanced salt solution containing calcium and magnesium. Cells are loaded for 1-2 hours with a calcium dye such as Fluo4 at 37° C.
The test compound may be added prior to or concurrent with the loading of the cells with Fluo4. Pre-incubation with compounds can vary from 5 minutes up 2 hours. Pre-incubation is done if the assay is testing for antagonists, positive allosteric modulators or negative allosteric modulators. No pre-incubation is done if the assay is testing for agonist activity. For testing antagonists or negative allosteric modulators an EC80 of the endogenous ligand, glutamate, is used. For testing positive allosteric modulators an EC20 of the endogenous ligand, glutamate, is used. Cells plates are loaded into a real-time fluorescence reader such as the FLIPR Tetra or the Flexstation 3. A base line is recorded for 15 seconds before cells are stimulated with either glutamate or other agonists. The real-time fluorescent signal is recorded for another 2 minutes. The peak of the fluorescent signal is determined. Data are either expressed as percent of the glutamate response in terms of a single determination or concentration curves are fitted with a four parameter logistic equation giving EC50 or IC50 values.

[1] = tested on: human neural stem cells (hNSCs); assay: Neuronal differentiation of human neural stem cells; set-up: key to Inhibition by LY-354740 / Inhibition by DCG-IV: I—Inhibition; settings: for EC50: Homo sapiens, Neural stem cell; for Inhibition by DCG-IV: inhibition of the compound-induced neurogenesis by the mGluR2/3 agonist DCG-IV; for Inhibition by LY-354740: inhibition of the compound-induced neurogenesis by the group II mGlu agonist LY-354740
Protocol: FIG. 1 is a dose-response curve showing the effect of Compound 1 (8-bromo-4-(pyridazin-4-yl)-1H-benzo[b][1,4]diazepin-2(3H)-one) and DCG-IV, an mGluR2/3 agonist, alone and in combination on neuronal differentiation of cultured human neural stem cells (hNSCs). When run independently, each compound was tested in a concentration response curve ranging from 0.01 μM to 31.6 μM. Data are presented as the percentage of the neuronal positive control, with basal media values subtracted. […] In combination, the compounds were combined at equal concentrations at each point (for example, the first point in the combined curve consisted of a test of 0.01 μM Compound 1 and 0.01 μM DCG-IV).
Human neural stem cells (hNSCs) were isolated and grown in monolayer culture, plated, treated with varying concentrations of 8-bromo-4-(pyridazin-4-yl)-1H-benzo[b][1,4]diazepin-2(3H)-one (Compound 1), and stained with TUJ-1 antibody, as described in U.S. Patent Application Publication No. US2007/0015138. Mitogen-free test media with a positive control for neuronal differentiation was used along with basal media without growth factors as a negative control. […] The data are presented as a percent of neuronal positive control.
The same protocol used for exemplary Compound 1 (FIG. 1 and Example 55) was used to test these compounds. LY-354740 (eglumegad) is an agonist of the group II mGlu receptors.

mGluR2 = biological target: T2, mGluR2 (Homo sapiens, UniProt Q14416); assay: Functional assay (FLIPR), mGluR2; settings: class symbols: IC50 or inhibition at fixed concentration; CHO cells over-expressing mGluR2, calcium signal
T2 construct: expressed in transfected cells; transient Galpha16 co-transfection
Protocol: as §1
The test compound may be added prior to or concurrent with the loading of the cells with Fluo4. Pre-incubation with compounds can vary from 5 minutes up 2 hours. […] Cells plates are loaded into a real-time fluorescence reader such as the FLIPR Tetra or the Flexstation 3. A base line is recorded for 15 seconds before cells are stimulated with either glutamate or other agonists. The real-time fluorescent signal is recorded for another 2 minutes. The peak of the fluorescent signal is determined. Data are either expressed as percent of the glutamate response in terms of a single determination or concentration curves are fitted with a four parameter logistic equation giving EC50 or IC50 values.

[2] = neuronal differentiation of hNSCs, TUJ-1 staining, read-out: Neurogenesis EC50

T1 sequence (Q14832 23-879): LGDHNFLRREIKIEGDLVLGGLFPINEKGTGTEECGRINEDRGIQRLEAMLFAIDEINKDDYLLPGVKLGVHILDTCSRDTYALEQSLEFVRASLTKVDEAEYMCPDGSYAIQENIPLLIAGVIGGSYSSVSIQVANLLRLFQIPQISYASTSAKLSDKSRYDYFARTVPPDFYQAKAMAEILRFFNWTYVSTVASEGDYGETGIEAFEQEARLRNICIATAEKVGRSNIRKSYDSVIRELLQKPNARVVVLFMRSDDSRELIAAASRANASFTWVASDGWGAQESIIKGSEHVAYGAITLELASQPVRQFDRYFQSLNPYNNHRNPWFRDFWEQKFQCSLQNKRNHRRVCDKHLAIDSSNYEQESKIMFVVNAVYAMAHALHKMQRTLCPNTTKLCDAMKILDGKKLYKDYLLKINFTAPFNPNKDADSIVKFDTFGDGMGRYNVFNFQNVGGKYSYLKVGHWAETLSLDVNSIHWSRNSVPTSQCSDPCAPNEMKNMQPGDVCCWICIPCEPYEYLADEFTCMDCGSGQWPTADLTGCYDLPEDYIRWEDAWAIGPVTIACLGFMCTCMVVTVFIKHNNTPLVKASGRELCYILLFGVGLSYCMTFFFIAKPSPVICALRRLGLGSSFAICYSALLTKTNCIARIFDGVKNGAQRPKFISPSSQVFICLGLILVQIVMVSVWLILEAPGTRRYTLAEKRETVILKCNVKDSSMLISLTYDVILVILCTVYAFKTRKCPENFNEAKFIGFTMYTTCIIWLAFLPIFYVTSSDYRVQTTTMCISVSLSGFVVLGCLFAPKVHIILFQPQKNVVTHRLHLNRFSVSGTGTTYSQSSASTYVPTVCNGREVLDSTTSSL
T2 sequence (Q14416 19-872): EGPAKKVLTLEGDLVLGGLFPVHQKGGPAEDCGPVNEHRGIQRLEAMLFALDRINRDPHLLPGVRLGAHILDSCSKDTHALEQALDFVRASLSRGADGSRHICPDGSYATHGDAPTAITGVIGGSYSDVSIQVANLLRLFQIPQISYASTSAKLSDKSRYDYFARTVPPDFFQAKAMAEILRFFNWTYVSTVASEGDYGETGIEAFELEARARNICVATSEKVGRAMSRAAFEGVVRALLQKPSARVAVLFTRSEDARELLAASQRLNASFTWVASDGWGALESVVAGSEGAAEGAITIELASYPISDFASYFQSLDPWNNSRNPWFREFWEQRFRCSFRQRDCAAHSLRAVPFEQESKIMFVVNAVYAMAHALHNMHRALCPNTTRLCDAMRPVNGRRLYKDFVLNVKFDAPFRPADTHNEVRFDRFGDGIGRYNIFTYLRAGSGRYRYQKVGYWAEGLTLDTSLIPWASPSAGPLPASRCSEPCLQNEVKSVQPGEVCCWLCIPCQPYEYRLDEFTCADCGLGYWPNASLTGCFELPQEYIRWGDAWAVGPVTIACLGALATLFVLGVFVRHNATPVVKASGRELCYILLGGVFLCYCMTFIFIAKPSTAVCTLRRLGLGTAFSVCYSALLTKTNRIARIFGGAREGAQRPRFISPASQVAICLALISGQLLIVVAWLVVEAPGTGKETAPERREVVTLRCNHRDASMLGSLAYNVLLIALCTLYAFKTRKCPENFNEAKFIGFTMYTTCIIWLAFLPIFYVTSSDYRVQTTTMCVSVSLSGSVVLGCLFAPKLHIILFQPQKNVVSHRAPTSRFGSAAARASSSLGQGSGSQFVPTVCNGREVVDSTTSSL

Structure (SMILES)	EC50 [1, 2]	also measured
O=C1CC(c2ccc3[nH]c(=O)sc3c2)=Nc2ccc(C#Cc3ccccc3F)cc2N1 [Compound 36, 6-(8-((2-fluorophenyl)ethynyl)-2-oxo-2,3-dihydro-1H-benzo[b][1,4]diazepin-4-yl)benzo[d]thiazol-2(3H)-one]	–	mGluR3 FLIPR (mGluR3): C (C=inhibition at 101.1M<50%)
COC(=O)c1ccc2c(c1)NC(=O)CC(c1ccnnc1)=N2 [Compound 4, Methyl 2-oxo-4-(pyridazin-4-yl)-2,3-dihydro-1H-benzo[b][1,4]diazepine-8-carboxylate]	1 to 5 µM	–
O=C1CC(c2cncnc2)=Nc2ccc(Br)cc2N1 [Compound 7, 8-Bromo-4-(pyrimidin-3-yl)-1H-benzo[b][1,4]diazepin-2(3H)-one]	> 5 µM	–
O=C1CC(c2ccnnc2)=Nc2ccc(Br)cc2N1 [Compound 1, 8-bromo-4-(pyridazin-4-yl)-1H-benzo[b][1,4]diazepin-2(3H)-one]	1 to 5 µM	effect on neuronal differentiation (neurogenesis), tested alone ([1]; FIG. 1, 0.01 μM to 31.6 μM): promoted neuronal differentiation in a concentration dependent manner; neurogenesis in combination with DCG-IV ([1]; FIG. 1, Compound 1 and DCG-IV at equal concentrations (1:1 ratio) at each point): no noted neurogenesis; also recorded: did not induce neurogenesis; EC50 ([1]; FIG. 1, 0.01 μM to 31.6 μM, percentage of neuronal positive control, basal media subtracted, read-out: EC50, neuronal differentiation dose-response curve): 2.53 µM; Inhibition by DCG-IV [1]: I
O=C1CC(c2ccnnc2)=Nc2ccc(F)cc2N1 [Compound 6, 8-fluoro-4-(pyridazin-4-yl)-1H-benzo[b][1,4]diazepin-2(3H)-one]	1 to 5 µM	–
O=C1CC(c2ccnnc2)=Nc2ccc(Cl)cc2N1 [Compound 5, 8-chloro-4-(pyridazin-4-yl)-1H-benzo[b][1,4]diazepin-2(3H)-one]	< 1 µM	–
O=C1CC(c2ccnnc2)=Nc2ccc(I)cc2N1 [Compound 3, 8-iodo-4-(pyridazin-4-yl)-1H-benzo[b][1,4]diazepin-2(3H)-one]	1 to 5 µM	Inhibition by LY-354740 [1]: I
N[C@H](C(=O)O)C1[C@@H](C(=O)O)[C@@H]1C(=O)O (some centres unmarked) [DCG-IV, reference compound]	–	effect on neuronal differentiation (neurogenesis), tested alone ([1]; FIG. 1, 0.01 μM to 31.6 μM): no effect; also recorded: did not induce neurogenesis
O=C1CC(c2ccnnc2)=Nc2ccc(C(F)(F)F)cc2N1 [Compound 2, 8-trifluoromethyl-4-(pyridazin-4-yl)-1H-benzo[b][1,4]diazepin-2(3H)-one]	1 to 5 µM	Inhibition by LY-354740 [1]: I
O=C1CC(c2ccc(O)nn2)=Nc2ccc(Br)cc2N1 [Compound 33, 8-Bromo-4-(6-hydroxypyridazin-3-yl)-1H-benzo[b][1,4]diazepin-2(3H)-one]	–	mGluR3 FLIPR (mGluR3): B (B=inhibition at 101.1M>50%)
O=C1CC(c2ccc3[nH]c(=O)sc3c2)=Nc2ccc(Br)cc2N1 [Compound 35, 6-(8-bromo-2-oxo-2,3-dihydro-1H-benzo[b][1,4]diazepin-4-yl)benzo[d]thiazol-2(3H)-one]	–	mGluR3 FLIPR (mGluR3): C (C=inhibition at 101.1M<50%)
O=C1CC(c2cccc(Br)c2)=Nc2ccc(NC(=O)OCc3ccccc3)cc2N1 [Compound 82, benzyl(4-(3-bromophenyl)-2-oxo-2,3-dihydro-1H-benzo[b][1,4]diazepin-8-yl)carbamate]	–	mGluR2 FLIPR (mGluR2): A (A=IC50<1 μM)
O=C1CC(c2cnccn2)=Nc2ccc(Br)cc2N1 [Compound 8, 8-Bromo-4-(pyrazin-2-yl)-1H-benzo[b][1,4]diazepin-2(3H)-one]	> 5 µM	–

Now from value to compound, other results behind:

EC50 [1, 2]	Structure (SMILES)	also measured
> 5 µM	O=C1CC(c2ccnnc2)=Nc2ccc(-c3ccccc3F)cc2N1 [Compound 16, 8-(2-Fluorophenyl)-4-(pyridazin-4-yl)-1H-benzo[b][1,4]diazepin-2(3H)-one]	–
1 to 5 µM	O=C1CC(c2ccc(Cl)nn2)=Nc2ccc(Br)cc2N1 [Compound 10]	–
> 5 µM	Cc1cc2c(cc1C)NC(=O)CC(c1ccnnc1)=N2 [Compound 13, 7,8-Dimethyl-4-(pyridazin-4-yl)-1H-benzo[b][1,4]diazepin-2(3H)-one]	–
> 5 µM	COc1ccc(-c2ccc3c(c2)NC(=O)CC(c2ccnnc2)=N3)cc1OC [Compound 17, 8-(3,4-Dimethoxyphenyl)-4-(pyridazin-4-yl)-1H-benzo[b][1,4]diazepin-2(3H)-one]	–
1 to 5 µM	O=C1CC(c2ccnnc2)=Nc2ccc(-c3cccs3)cc2N1 [Compound 15, 8-(Thiophen-2-yl)-4-(pyridazin-4-yl)-1H-benzo[b][1,4]diazepin-2(3H)-one]	Inhibition by LY-354740 [1]: I; Inhibition by DCG-IV [1]: I
< 1 µM	O=C1CC(c2ccnnc2)=Nc2ccc(C(=O)O)cc2N1 [Compound 12, 2-oxo-4-(pyridazin-4-yl)-2,3-dihydro-1H-benzo[b][1,4]diazepine-8-carboxylic acid]	Inhibition by LY-354740 [1]: I
1 to 5 µM	Cc1ccc(C2=Nc3ccc(Br)cc3NC(=O)C2)nn1 [Compound 9]	–
